Test results taken from patent publication US4744985A, “Novel substances having carcinostatic and immunostimulating activity, process for preparing the same and carcinostatic agent containing the same” (Toyama Chemical Co., Ltd., priority 1979, dated 1988).

Legend:
B-16 melanoma [1] = experiment: Antitumor activity against B-16 melanoma (tumor growth); type: in vivo, BDF1 strain mice (male, 7 weeks old); conditions: 20 mg/kg × 6
Method: (§1) (1) B-16 Melanoma tumor cells were subcutaneously transplanted at the armpit to BDF1 strain mice (male, 7 weeks old) in an amount of 1×10^6 cells per mouse. Subsequently, TF-133a was intraperitoneally administered to the mice in a dosage of 5 mg/kg or 10 mg/kg once a day on the first day and from the third day to the seventh day, for 6 days in total, after the transplantation of the tumor cells. In the same manner as above, 0.2 ml of a physiological salt solution was administered to the control group, and 20 mg/kg of 5-FU to the group for 5-FU administration.

B-16 melanoma [2] = experiment: Metastasis of B-16 melanoma tumor cells to the lungs; type: in vivo, BDF1 strain mice (male, 7 weeks old); conditions: 20 mg/kg × 6, 21st day
Method: as §1
(2) The transplantation of B-16 melanoma tumor cells and the administration of TF-132a, TF-133a, 5-FU and a physiological salt solution were carried out in the same manner as in above (1). On the 21st day after the transplantation of the tumor cells, the mice were dissected, and the metastasis of the melanoma tumor cells to the lungs was observed.

O=c1[nH]cc(F)c(=O)[nH]1 [5-FU]
Average tumor weight (B-16 melanoma [1]): 4.21 g
T/C (B-16 melanoma [1]): 72%
Average number of metastasis (B-16 melanoma [2]): 24.8
Percentage of metastasis inhibition (B-16 melanoma [2]): 20%
